Ends that are not written are not given here.
Target: T1, PAI-1 (Homo sapiens, UniProt P05121)
T1 construct: made in house; host or cells: E. coli (vector pET3a)
Test: Thermal denaturation of peptide treated PAI-1
Details: FIG. 4
Text: Circular dichroism (CD) spectra analysis (Strandberg et al., 1991) indicated similar secondary structural components for the PAI-1 mutants, as well as active and latent wild-type PAI-1.
(Lawrence et al., 1994c). […] As expected, active PAI-1 was much less thermally stable than latent PAI-1 or elastase cleaved PAI-1 (FIG. 4). […] This is precisely the behavior expected for a serpin with a peptide intercalated into β-sheet A (Carrell et al., 1991; Schulze et al., 1990; Bjork et al., 1992). […] If the 14 residue peptide were intercalated into β-sheet A, then the added length of the peptide bound to sheet A would be expected to increase the stability not decrease it.
Upon completion of peptide annealing, the incubation solution contained a mixture of annealed PAI-peptide, latent PAI, and excess peptide. For circular dichroism (CD) spectra, melting curves, and mass spectroscopy determinations, the excess peptide was removed. This was done by loading the mixture on a heparin-sepharose column which had been equilibrated with 0.05M sodium phosphate, 0.15M NaCl, 1 mM EDTA, 0.01% TWEEN-80, pH 6.6. Washing the column with this buffer removed the excess peptide. The PAI-peptide and latent PAI were eluted together with 0.05M Sodium phosphate, 1M NaCl, 1 mM EDTA, 0.01% TWEEN-80, pH 6.6. […] The absorbance at 280 nm was used to determine the final protein concentration. […]

T1 sequence (P05121 24-402): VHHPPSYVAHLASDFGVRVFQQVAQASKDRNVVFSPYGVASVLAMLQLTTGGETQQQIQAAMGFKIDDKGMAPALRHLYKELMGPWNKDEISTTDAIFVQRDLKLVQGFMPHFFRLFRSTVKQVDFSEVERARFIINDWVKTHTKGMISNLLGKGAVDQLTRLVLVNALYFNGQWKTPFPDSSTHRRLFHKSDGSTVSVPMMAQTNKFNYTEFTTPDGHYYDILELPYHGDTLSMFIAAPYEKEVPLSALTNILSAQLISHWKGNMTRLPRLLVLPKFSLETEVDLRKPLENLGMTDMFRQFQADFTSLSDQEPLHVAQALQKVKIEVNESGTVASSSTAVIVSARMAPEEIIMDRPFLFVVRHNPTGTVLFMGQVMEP

- thermal stability of peptide treated PAI-1: very similar to latent PAI-1
Substance: Ac-TVASSSTAVIVSAR [SEQ ID NO: 1, Thr-Val-Ala-Ser-Ser-Ser-Thr-Ala-Val-Ile-Val-Ser-Ala-Arg]

Source: patent US5639726A, “Peptide mediated enhancement of thrombolysis methods and compositions” (The Regents of the University of Michigan, priority 1994, dated 1997)
